Among the data in patent US20100160369A1, “S1P1 Agonists and Methods of Making And Using” (EXELIXIS, INC., priority 2008, published 2010) are EC50 values, retold here.

Counter-ions that a name gives are not always drawn.

Test [1] concerns the target T1, S1P1 (Homo sapiens, UniProt P21453). Briefly: CNG cAMP Assay (Assay 1). The format is cell-based. Also on record: host or cells: HEK293 cells expressing the CNG channel. Conditions: read-out: Assay 1 EC50. The essentials:
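HEK293 cells expressing CNG channel and S1P1, membrane-potential dye loaded; compounds (top 10 μM, 10-point 3-fold, 1.8% DMSO) added with 25 μM Ro 20-1724, 500 nM NECA and 10 nM S1P for 90 min. T90/T0 fluorescence (Ex 350/Em 590 nm) normalised to NECA-alone vs DMSO; EC50 fitted.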
Target sequence in this assay (P21453 whole entry): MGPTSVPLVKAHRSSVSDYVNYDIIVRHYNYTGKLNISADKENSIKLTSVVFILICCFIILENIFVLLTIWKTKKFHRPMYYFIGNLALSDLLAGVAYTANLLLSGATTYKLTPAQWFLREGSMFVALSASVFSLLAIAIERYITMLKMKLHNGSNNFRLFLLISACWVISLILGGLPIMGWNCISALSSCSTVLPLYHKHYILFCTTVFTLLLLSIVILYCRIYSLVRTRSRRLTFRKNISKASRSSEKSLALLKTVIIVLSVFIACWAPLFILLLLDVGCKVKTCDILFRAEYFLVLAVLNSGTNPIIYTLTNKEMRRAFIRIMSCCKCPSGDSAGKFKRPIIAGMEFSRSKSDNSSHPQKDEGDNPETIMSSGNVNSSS

Test [2] deals with T2, hS1P1R (hEdg1) (Homo sapiens, UniProt P21453).
T2 construct: purchased Lonza
T2 sequence (P21453 whole entry): as above
Description: hS1P1R GTPγS Binding Assay (Assay 3a). It counts as biochemical. How it is done: The hS1P1R GTPγS binding assay was carried out at room temperature in 96 well non-binding surface assay plates. The reaction in each well contained 4 μg hS1P1R (hEdg1) membrane protein (Lonza), 30 μM GDP, 0.1 nM [^35S]GTPγS, 0.25% fatty acid free BSA, and serially diluted hS1P1R agonist compound in 200 μL assay buffer (25 mM Tris-HCl PH 7.9, 100 mM NaCl, 3 mM MgCl2, and 0.2 mM EGTA). After one hour of incubation, 0.9 mg of WGA (Wheat Germ Agglutinin) SPA beads in 50 μL of assay buffer was added to each well. The SPA beads were spun down after an additional one hour incubation. The radioactivity of the bound GTPγS was counted by reading the assay plate using a MicroBeta.
Assay 1 is the CNG cAMP Assay as described in Biological Example 1. Assay 2a and 2b are the Tango™ β-arrestin Recruitment Assay in HEK293 and U2OS cells, respectively, as described in Biological Example 2. Assay 3a is the hS1P1R GTPγS Binding Assay as described in Biological Example 3. Assay 3b is the GTP-Eu Binding Assay as described in Biological Example 3. EC50's were measured unless otherwise noted. […] In the table, “nt” means the Compound was not tested and “no” means the compound was tested but had no measurable activity under the assay conditions employed.

The target in test [3] is T1, S1P1. Briefly: Tango β-arrestin Recruitment Assay in HEK293 cells (Assay 2a). It counts as cell-based. The arrangement: linker with TEV protease (N1a) cleavage site (C); host or cells: HEK293, transiently transfected. The settings on record: Tango β-arrestin Recruitment Assay, read-out: Assay 2a EC50. The essentials: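 HEK293 cells transiently expressing S1P1 (TEV-cleavable tTA fusion) with β-arrestin2–TEV; compounds up to 10 μM, 10-point 3-fold, 1% DMSO, 30 min then 16–18 h at 37 °C. Luciferase luminescence normalised to 5 μM S1P as 100% and DMSO as background; EC50 from percent-activity curves.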
Target sequence in this assay (P21453 whole entry): as above
Target sequence in this assay (P32121 whole entry partner): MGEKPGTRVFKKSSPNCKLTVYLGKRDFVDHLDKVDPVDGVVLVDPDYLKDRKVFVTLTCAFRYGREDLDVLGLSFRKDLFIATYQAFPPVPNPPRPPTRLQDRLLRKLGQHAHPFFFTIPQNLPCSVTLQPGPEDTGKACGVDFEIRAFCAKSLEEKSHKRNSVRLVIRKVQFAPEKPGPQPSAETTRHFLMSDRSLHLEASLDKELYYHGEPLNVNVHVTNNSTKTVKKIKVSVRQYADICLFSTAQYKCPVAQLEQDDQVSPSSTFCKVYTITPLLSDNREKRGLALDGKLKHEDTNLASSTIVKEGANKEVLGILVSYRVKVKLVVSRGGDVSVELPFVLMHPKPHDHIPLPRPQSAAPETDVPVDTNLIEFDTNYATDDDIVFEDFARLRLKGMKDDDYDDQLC

Test [4] has as its target T1, S1P1. Briefly: Tango β-arrestin Recruitment Assay in U2OS cells (Assay 2b). It counts as cell-based. Also on record: linker with TEV protease (N1a) cleavage site (C). Conditions: Tango β-arrestin Recruitment Assay, read-out: Assay 2b EC50. The essentials: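 U2OS cells expressing S1P1 and reporter, serum-starved 48 h, treated with compound (10-point 3-fold series, top 1 μM, 1% DMSO) overnight at 37 °C; β-lactamase substrate added 2 h at room temperature. F460/F530 ratio normalised to 1 μM S1P (100%) and DMSO; EC50 from concentration-response.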
Target sequence in this assay (P21453 whole entry): as the sequence (P21453 whole entry) above
Target sequence in this assay (P32121 whole entry partner): as the sequence (P32121 whole entry partner) above

Take `O=C(O)CCc1c(Cl)cc(-c2noc(-c3cn4cc(C(F)(F)F)cc(Cl)c4n3)n2)cc1Cl` [Entry 21]: the half-maximal effective concentration (EC50) is no more than 100 nM in test [1], 500 to 1000 nM in test [2] and no more than 100 nM in test [3].

For `OC[C@H](O)COc1cc(Cl)c(-c2noc(-c3cn4cc(C(F)(F)F)cc(Br)c4n3)n2)cc1Cl` [Entry 33], the EC50 in test [2], in test [4] and in test [3] was no more than 100 nM throughout.

Turning to `C[C@H](O)COc1cc(Cl)c(-c2noc(-c3cn4cc(C(F)(F)F)cc(Cl)c4n3)n2)cc1Cl` [Entry 38], the EC50 in test [2], in test [4] and in test [3] was no more than 100 nM throughout.

For `OCC(O)COc1cc(Cl)c(-c2nc(-c3cn4cc(C(F)(F)F)cc(Cl)c4n3)no2)cc1Cl` (stereo not drawn) [Entry 50], the EC50 in test [2], in test [4] and in test [3] was no more than 100 nM in each case.

On to `O=C(O)C1CC1c1cc(Cl)c(-c2noc(-c3cn4cc(C(F)(F)F)cc(Br)c4n3)n2)cc1F` (stereo not drawn) [Example 89, 2-(4-{5-[8-bromo-6-(trifluoromethyl)imidazo[1,2-a]pyridin-2-yl]-1,2,4-oxadiazol-3-yl}-5-chloro-2-fluorophenyl)cyclopropanecarboxylic acid], for which the EC50 was no more than 100 nM in test [1], 500 to 1000 nM in test [2] and no more than 100 nM in test [3].

As for `OCCCOc1cc(Cl)c(-c2noc(-c3cn4cc(C(F)(F)F)cc(Cl)c4n3)n2)cc1Cl` [Example 105, 3-[(2,5-dichloro-4-{5-[8-chloro-6-(trifluoromethyl)imidazo[1,2-a]pyridin-2-yl]-1,2,4-oxadiazol-3-yl}phenyl)oxy]propan-1-ol], the EC50 in test [2], in test [4] and in test [3] was no more than 100 nM in each case.

Turning to `OC(CF)COc1cc(Cl)c(-c2noc(-c3cn4cc(C(F)(F)F)cc(Cl)c4n3)n2)cc1Cl` (stereo not drawn) [Example 118, 1-[(2,5-dichloro-4-{5-[8-chloro-6-(trifluoromethyl)imidazo[1,2-a]pyridin-2-yl]-1,2,4-oxadiazol-3-yl}phenyl)oxy]-3-fluoropropan-2-ol], the half-maximal effective concentration (EC50) in test [2], in test [4] and in test [3] was no more than 100 nM each time.

`OCC(O)COc1ccc(-c2noc(-c3cn4cc(C(F)(F)F)cc(Cl)c4n3)n2)c(Cl)c1` (stereo not drawn) [Example 194, 3-[(3-chloro-4-{5-[8-chloro-6-(trifluoromethyl)imidazo[1,2-a]pyridin-2-yl]-1,2,4-oxadiazol-3-yl}phenyl)oxy]propane-1,2-diol]: the EC50 is no more than 100 nM in test [1], 500 to 1000 nM in test [2] and no more than 100 nM in test [3].

Take `OCC(O)COc1cc(Cl)c(-c2noc(-c3cn4cc(C(F)(F)F)cc(Cl)c4n3)n2)cc1F` (stereo not drawn) [Example 198, 3-[(5-chloro-4-{5-[8-chloro-6-(trifluoromethyl)imidazo[1,2-a]pyridin-2-yl]-1,2,4-oxadiazol-3-yl}-2-fluorophenyl)oxy]propane-1,2-diol]: the half-maximal effective concentration (EC50) in test [1], in test [2] and in test [3] was no more than 100 nM each time.

`OCC(O)COc1cc(Cl)c(-c2noc(-c3cn4cc(I)cc(Cl)c4n3)n2)cc1Cl` (stereo not drawn) [Example 204, 3-({2,5-dichloro-4-[5-(8-chloro-6-iodoimidazo[1,2-a]pyridin-2-yl)-1,2,4-oxadiazol-3-yl]phenyl}oxy)propane-1,2-diol]: the EC50 in test [2] is 100 to 500 nM; in test [3], no more than 100 nM.

For `O=C(O)CCc1c(Cl)cc(-c2nnc(-c3cn4cc(C(F)(F)F)cc(Cl)c4n3)s2)cc1Cl` [Example 206, 3-(2,6-dichloro-4-{5-[8-chloro-6-(trifluoromethyl)imidazo[1,2-a]pyridin-2-yl]-1,3,4-thiadiazol-2-yl}phenyl)propanoic acid], the results for the EC50 in test [2] and in test [3] were 1000 to 5000 nM and no more than 100 nM, respectively.

For the compound `O=C(O)CCc1cc(Cl)c(-c2nnc(-c3cn4cc(I)cc(Cl)c4n3)s2)cc1F` [Example 207, 3-{5-chloro-4-[5-(8-chloro-6-iodoimidazo[1,2-a]pyridin-2-yl)-1,3,4-thiadiazol-2-yl]-2-fluorophenyl}propanoic acid], the concentration for a half-maximal effect (EC50) is 1000 to 5000 nM in test [2] and no more than 100 nM in test [3].

`OCC(O)COc1c(Cl)cc(-c2noc(-c3cn4cc(C(F)(F)F)cc(Cl)c4n3)n2)cc1Cl` (stereo not drawn) [Example 209, 3-[(2,6-dichloro-4-{5-[8-chloro-6-(trifluoromethyl)imidazo[1,2-a]pyridin-2-yl]-1,2,4-oxadiazol-3-yl}phenyl)oxy]propane-1,2-diol]: the EC50 in test [2] and in test [3] was no more than 100 nM in each case.

On to `NC(CO)COc1ccc(-c2noc(-c3cn4cc(C(F)(F)F)cc(Cl)c4n3)n2)c(Cl)c1` (stereo not drawn) [Example 213, 2-amino-3-[(3-chloro-4-{5-[8-chloro-6-(trifluoromethyl)imidazo[1,2-a]pyridin-2-yl]-1,2,4-oxadiazol-3-yl}phenyl)oxy]propan-1-ol], for which the EC50 in test [1], in test [4] and in test [3] was no more than 100 nM throughout.

Take `O=C(O)CCc1cc(Cl)c(-c2nc(-c3cn4cc(I)cc(Cl)c4n3)no2)cc1F` [Example 240, 3-{5-chloro-4-[3-(8-chloro-6-iodoimidazo[1,2-a]pyridin-2-yl)-1,2,4-oxadiazol-5-yl]-2-fluorophenyl}propanoic acid]: the EC50 in test [2] is 500 to 1000 nM; in test [3], no more than 100 nM.

For the compound `Cc1cc(-c2nnc(-c3cn4cc(C(F)(F)F)cc(Cl)c4n3)s2)cc(C)c1OCC(O)CO` (stereo not drawn) [Example 246, 3-[(4-{5-[8-chloro-6-(trifluoromethyl)imidazo[1,2-a]pyridin-2-yl]-1,3,4-thiadiazol-2-yl}-2,6-dimethylphenyl)oxy]propane-1,2-diol], the EC50 in test [1], in test [4] and in test [3] was no more than 100 nM in each case.

For the compound `OCC(O)COc1cc(Cl)c(-c2nnc(-c3cn4cc(C(F)(F)F)cc(Cl)c4n3)s2)cc1F` (stereo not drawn) [Example 247, 3-[(5-chloro-4-{5-[8-chloro-6-(trifluoromethyl)imidazo[1,2-a]pyridin-2-yl]-1,3,4-thiadiazol-2-yl}-2-fluorophenyl)oxy]propane-1,2-diol], the EC50 is no more than 100 nM in test [1], 100 to 500 nM in test [4] and no more than 100 nM in test [3].

Take `CC(Cc1cc(Cl)c(-c2nnc(-c3cn4cc(C(F)(F)F)cc(Cl)c4n3)s2)cc1Cl)C(=O)O` (stereo not drawn) [Example 285, 3-(2,5-dichloro-4-{5-[8-chloro-6-(trifluoromethyl)imidazo[1,2-a]pyridin-2-yl]-1,3,4-thiadiazol-2-yl}phenyl)-2-methylpropanoic acid]: the EC50 is 1000 to 5000 nM in test [2] and no more than 100 nM in test [3].

Take `C[C@@H](COc1cc(Cl)c(-c2noc(-c3cn4cc(C(F)(F)F)cc(Cl)c4n3)n2)cc1Cl)OS(=O)(=O)O` [Example 326, (1S)-2-[(2,5-dichloro-4-{5-[8-chloro-6-(trifluoromethyl)imidazo[1,2-a]pyridin-2-yl]-1,2,4-oxadiazol-3-yl}phenyl)oxy]-1-methylethyl hydrogen sulfate]: the EC50 in test [4] and in test [3] was no more than 100 nM in each case.

Regarding `CC(O)(CO)COc1cc(Cl)c(-c2noc(-c3cn4cc(C(F)(F)F)cc(Cl)c4n3)n2)cc1Cl` (stereo not drawn) [Example 330, 3-[(2,5-dichloro-4-{5-[8-chloro-6-(trifluoromethyl)imidazo[1,2-a]pyridin-2-yl]-1,2,4-oxadiazol-3-yl}phenyl)oxy]-2-methylpropane-1,2-diol], the EC50 in test [4] and in test [3] was no more than 100 nM in each case.

On to `N[C@H](CO)COc1cc(Cl)c(-c2nnc(-c3cn4cc(C(F)(F)F)cc(Cl)c4n3)s2)cc1F` [Example 334, (2R)-2-Amino-3-[(5-chloro-4-{5-[8-chloro-6-(trifluoromethyl)imidazo[1,2-a]pyridin-2-yl]-1,3,4-thiazol-2-yl}-2-fluorophenyl)oxy]propan-1-ol], for which the EC50 in test [4] and in test [3] was no more than 100 nM each time.
